In ChEMBL document CHEMBL5634152, “The discovery of water-soluble indazole derivatives as potent microtubule polymerization inhibitors” (Eur J Med Chem, 2023):
Activity calls are given as the source filed them. No cut-off for these calls is given here.

Key:
[1] = system: A549/TR; experiment: Antiproliferative activity against human A549/Taxol cells assessed as cell growth inhibition incubated for72 hrs by MTT assay; format: functional, cell-based
[2] = Resistance index, ratio of IC50 for human A549/Taxol cells to IC50 for human A549 cells; format: functional
[3] = Aqueous solubility of compound in pH 7.4 at 10 mg/ml by HPLC analysis; format: physicochemical; details: buffer
[4] = Lipophilicity, logP of compound in n-octanol-water at 5 mg/ml incubated for 8 hrs by HPLC analysis; format: physicochemical
[5] = organism: Sus scrofa; experiment: Inhibition of pig brain tubulin polymerization by absorbance based assay; format: tissue-based; details: dose <= 6.0 µM
[6] = Inhibition of pig brain tubulin polymerization measured after 20 mins by absorbance based assay; format: tissue-based, Sus scrofa
[7] = target: T1, Tubulin (Homo sapiens) (UniProt P68371+Q9H4B7+P0DPH7+P68366+Q13509+Q71U36+P04350+Q3ZCM7+P07437+P68363+Q9BQE3+Q6PEY2+Q13885+Q9BVA1+Q9BUF5); experiment: Inhibition of tubulin polymerization in human A549 cells assessed as disruption of microtubule aggregation incubated for 24 hrs by immunofluorescence based analysis; format: cell-based; details: dose 12.5-25 nM
[8] = target: T1, Tubulin (Homo sapiens); experiment: Inhibition of tubulin polymerization in human A549 cells assessed as decrease in spindle formation incubated for 24 hrs by immunofluorescence based analysis; format: cell-based; details: dose 12.5-25 nM
[9] = target: T1, Tubulin (Homo sapiens); experiment: Binding affinity to tubulin polymerization in human A549 cells assessed as N,N'-ethylene- bis(iodoacetamide)/beta-tubulin adduct formation at 5 uM incubated for 2 hrs by chemiluminescence based assay; format: cell-based
[10] = target: T1, Tubulin (Homo sapiens); experiment: Binding affinity to tubulin polymerization at colchicine-binding site in human A549 cells assessed as N,N'-ethylene- bis(iodoacetamide)/beta-tubulin adduct formation incubated for 2 hrs by chemiluminescence based assay; format: cell-based; details: dose 0.1-25 µM
[11] = system: A549; experiment: Induction of cell cycle arrest at G1 phase in human A549 cells at 12.5 nM incubated for 24 hrs by flow cytometry (reference value: 71.30 %); format: functional
[12] = system: A549; experiment: Induction of cell cycle arrest at S phase in human A549 cells at 12.5 nM incubated for 24 hrs by flow cytometry (reference value: 24.86 %); format: functional
[13] = system: A549; experiment: Induction of cell cycle arrest at G2/M phase in human A549 cells at 12.5 nM incubated for 24 hrs by flow cytometry (reference value: 3.84 %); format: functional
[14] = system: A549; experiment: Induction of cell cycle arrest at G1 phase in human A549 cells at 25 nM incubated for 24 hrs by flow cytometry (reference value: 71.30 %); format: functional
[15] = system: A549; experiment: Induction of cell cycle arrest at S phase in human A549 cells at 25 nM incubated for 24 hrs by flow cytometry (reference value: 24.86 %); format: functional
[16] = system: A549; experiment: Induction of cell cycle arrest at G2/M phase in human A549 cells at 25 nM incubated for 24 hrs by flow cytometry (reference value: 3.84 %); format: functional
[17] = system: A549; experiment: Induction of apoptosis in human A549 cells assessed as viable cells at 12.5 nM incubated for 24 hrs by Annexin V/7-Aad staining based flow cytometry (reference value: 93.63 %); format: functional; details: read-out: Activity
[18] = system: A549; experiment: Induction of apoptosis in human A549 cells assessed as early apoptotic cells at 12.5 nM incubated for 24 hrs by Annexin V/7-Aad staining based flow cytometry (reference value: 1.05 %); format: functional
[19] = system: A549; experiment: Induction of apoptosis in human A549 cells assessed as late apoptotic cells at 12.5 nM incubated for 24 hrs by Annexin V/7-Aad staining based flow cytometry (reference value: 3.20 %); format: functional
[20] = system: A549; experiment: Induction of apoptosis in human A549 cells assessed as necrotic cells at 12.5 nM incubated for 24 hrs by Annexin V/7-Aad staining based flow cytometry (reference value: 2.13 %); format: functional
[21] = system: A549; experiment: Induction of apoptosis in human A549 cells assessed as viable cells at 25 nM incubated for 24 hrs by Annexin V/7-Aad staining based flow cytometry (reference value: 93.63 %); format: functional; details: read-out: Activity
[22] = system: A549; experiment: Induction of apoptosis in human A549 cells assessed as early apoptotic cells at 25 nM incubated for 24 hrs by Annexin V/7-Aad staining based flow cytometry (reference value: 1.05 %); format: functional
[23] = system: A549; experiment: Induction of apoptosis in human A549 cells assessed as late apoptotic cells at 25 nM incubated for 24 hrs by Annexin V/7-Aad staining based flow cytometry (reference value: 3.20 %); format: functional
[24] = system: A549; experiment: Induction of apoptosis in human A549 cells assessed as necrotic cells at 25 nM incubated for 24 hrs by Annexin V/7-Aad staining based flow cytometry (reference value: 2.13 %); format: functional
[25] = system: A549; experiment: Induction of apoptosis in human A549 cells assessed as viable cells at 50 nM incubated for 24 hrs by Annexin V/7-Aad staining based flow cytometry (reference value: 93.63 %); format: functional; details: read-out: Activity
[26] = system: A549; experiment: Induction of apoptosis in human A549 cells assessed as early apoptotic cells at 50 nM incubated for 24 hrs by Annexin V/7-Aad staining based flow cytometry (reference value: 1.05 %); format: functional
[27] = system: A549; experiment: Induction of apoptosis in human A549 cells assessed as late apoptotic cells at 50 nM incubated for 24 hrs by Annexin V/7-Aad staining based flow cytometry (reference value: 3.20 %); format: functional
[28] = system: A549; experiment: Induction of apoptosis in human A549 cells assessed as necrotic cells at 50 nM incubated for 24 hrs by Annexin V/7-Aad staining based flow cytometry (reference value: 2.13 %); format: functional
[29] = system: A549; experiment: Inhibition of cell migration in human A549 cells at 12.5 nM incubated for 24 hrs by wound healing assay relative to control; format: functional
[30] = system: A549; experiment: Inhibition of cell migration in human A549 cells at 25 nM incubated for 24 hrs by wound healing assay relative to control; format: functional
[31] = system: A549; experiment: Inhibition of cell migration in human A549 cells at 50 nM incubated for 24 hrs by wound healing assay relative to control; format: functional
[32] = system: A549; experiment: Antitumor activity against human A549 cells xenografted in Balb/c nude mouse assessed as tumor growth inhibition at 25 mg/kg, IG qd for 21 days relative to control; format: functional; details: A549, po, 504 h, time 21 day, read-out: TGI
[33] = Toxicity in Balb/c nude mouse xenografted with human A549 cells assessed as body weight loss at 25 mg/kg, IG qd for 21 days; format: organism-based; details: in vivo, po, 504 h, time 21 day
[34] = Toxicity in Balb/c nude mouse xenografted with human A549 cells assessed as damage in liver at 25 mg/kg, IG qd for 21 days by H and E staining based analysis; format: organism-based; details: in vivo, po, 504 h, time 21 day
[35] = Toxicity in Balb/c nude mouse xenografted with human A549 cells assessed as damage in kidney at 25 mg/kg, IG qd for 21 days by H and E staining based analysis; format: organism-based; details: in vivo, po, 504 h, time 21 day
[36] = Toxicity in Balb/c nude mouse xenografted with human A549 cells assessed as damage in spleen at 25 mg/kg, IG qd for 21 days by H and E staining based analysis; format: organism-based; details: in vivo, po, 504 h, time 21 day
[37] = system: A549; experiment: cells; details: Homo sapiens
Description: Antiproliferative activity against human A549 cells assessed as cell growth inhibition incubated for72 hrs by MTT assay

[38] = system: Huh-7; experiment: cells; details: Homo sapiens
Description: Antiproliferative activity against human Huh-7 cells assessed as cell growth inhibition incubated for72 hrs by MTT assay

[39] = system: T-24; experiment: cells; details: Homo sapiens
Description: Antiproliferative activity against human T-24 cells assessed as cell growth inhibition incubated for72 hrs by MTT assay

With `COc1cc(-n2ncc3ccc(-c4ccc(C)nc4)cc32)cc(OC)c1OC.Cl` the IC50 [1] was 33 nM, the “Ratio IC50” value [2] was 1.2 and the solubility [3] was 149 µg/mL. The logP at 8 h [4] was 1.8, the inhibition [5] was “Dose-Dependent Effect” and the IC50 [6] was 1750 nM. The inhibition [7] was “Dose-Dependent Effect”, the inhibition [8] was “Dose-Dependent Effect” and the Activity [9] was “Active”. For the same molecule, the Activity [10] was “Dose-Dependent Effect”, the Activity [11] was 68.78% and the Activity [12] was 18.11%. It also gave an Activity [13] of 13.1%, an Activity [14] of 3.04% and an Activity [15] of 7.88%. For the same molecule, the Activity [16] was 89.07%, the viability at 0.0125 µM [17] was 92.3% and the Activity [18] was 3.02%. It also gave an Activity [19] of 3.28%, an Activity [20] of 1.44% and a viability at 0.025 µM [21] of 69.1%. The Activity [22] was 16.41%, the Activity [23] was 12.23% and the Activity [24] was 2.26%. The viability at 0.05 µM [25] was 56.6%, the Activity [26] was 26.53% and the Activity [27] was 15.65%. It also gave an Activity [28] of 1.19%, an inhibition at 0.0125 µM [29] of 32.3% and an inhibition at 0.025 µM [30] of 52.2%. The inhibition at 0.05 µM [31] was 83.9%, the inhibition in vivo at 25 mg/kg [32] was 64.1% and the Activity [33] was “Non-Toxic”. The Activity [34] was “Non-Toxic”, the Activity [35] was “Non-Toxic” and the Activity [36] was “Non-Toxic”. For the same molecule, the IC50 [37] was 27 nM, the IC50 [38] was 30 nM and the IC50 [39] was 46 nM.
